From patent US5422341A, “Motilin-like polypeptides with gastrointestinal motor stimulating activity” (Ohmeda Pharmaceutical Products Division Inc., priority 1993, dated 1995)
Values joined by “and” are separate entries in the source; they are usually repeats but may differ in a detail not shown here. Equal entries are not always repeated. Structures can show the parent of a compound that is named as a salt. Where two headings read alike, the source gives them in different places. Square brackets hold non-standard residues; d marks the D form. Peptide text beside a SMILES is read from it. * marks the point of attachment. X3 = C#CC[N+](C)(C)[C@@H](Cc1ccccc1)C(=O)*; X1 = C[N+](C)(C)[C@@H](Cc1ccccc1)C(=O)*; NMe2Phe = CN(C)[C@@H](Cc1ccccc1)C(=O)*; NMeF = CN[C@@H](Cc1ccccc1)C(=O)O; dOrn = NCCC[C@@H](N)C(=O)O

Tests used:
[1] = tested on: canine gastrointestinal tract; experiment: Contractile activity in the canine gastrointestinal tract; type: in vivo, dog; conditions: anesthetized dogs, intra-arterial injection to a duodenal segment; amount giving 50% of the calibration response to field stimulation
Experimental: Mongrel dogs of either sex were anesthetized with sodium pentobarbital 65 mg/kg intravenously. A mid-line incision was made in the abdomen. A duodenal segment was located, the terminal arteries to that segment were identified, and the closest possible artery of the appropriate size was rubbed clean of fat and fascia. A needle of suitable diameter was bent at an angle and the tip inserted in the cleaned artery. The needle was held in position in the artery for approximately 30 seconds until vascular spasm has relaxed and then a catheter assembly was inserted into the artery and tied into position with 000 silk sutures. The fine polyethylene catheter (10-15 cm) was cut to a point at one end with a needle inserted at the other end. The hub of the needle was fitted with a 3-way stopcock and the catheter assembly was filled with heparinized Krebs Ringer bicarbonate containing 10 mM glucose. A bolus of Krebs (free of air) was injected into the arterial catheter and the distribution of blanching in the segment noted. If the area was too large, collateral arteries may be tied off as long as circulation to the area was maintained. A Bass type strain gauge was then sutured to the serosa, and oriented so that circular muscle contractions can be recorded on a Beckman R611 dynograph. Silver wire electrodes were inserted subserosally on either side of the strain gauge and were connected through stimulus isolation units to a Grass S88 electrical stimulator. Electrical field stimulation was applied at 40 V 0.5 ms and 5 pps and the amplitude of the pen recorder was set to contain the contractile response.
All peptides to be injected were dissolved in Krebs and serial dilutions were prepared so that for any concentration the maximum volume to be injected was 1 ml. All solutions except stock Krebs were held on ice for the day of the experiment and discarded at the end of the day. For determination of a dose-response curve, the site was first injected with a bolus of approximately 1 ml of heparinized Krebs to provide a flush control. Peptide agonists (in volumes of 1 ml flushed with 1 ml of Krebs) were injected in logarithmic increments until a response which was maximal in amplitude was obtained. The injection site was then flushed with Krebs containing 0.1% BSA to displace any peptide remaining in the arterial line. For peptides acting at the motilin receptor, care was taken not to inject supramaximal doses as these will induce tachyphylaxis. Therefore, as responses become apparent, 0.3 or 0.5 log unit increments were used. A site was used for a dose-response determination only every 1/2 to 1 hour.
The amplitude of the calibration response to field stimulation in each site was measured and used as 100% for that site. The amplitude of the response to the agonist at each dose was determined, calculated as a % of the calibration response and plotted against the concentration. The ED50 of the response represents the amount of agonist required to produce a response which was 50% of the calibration response.

[2] = target: segments of rabbit duodenum (Oryctolagus cuniculus, UniProt G1T803); experiment: Rabbit duodenal smooth muscle strip tissue bath assay; type: cell-based; conditions: negative logarithm of the dose giving 50% of the maximal response to motilin; isotonic contraction of rabbit duodenum segments
Experimental: The contractile response of segments of rabbit duodenum was determined isotonically in the tissue bath according to the procedure of Depoortere et at., J. Gastrointestinal Motility, 1, 150-159 (1989). The experimental protocol consisted of an equilibration period of 1 hour; a challenge with 10^-4 M acetylcholine followed by a wash-out period; a cumulative dose-response curve of a compound with, at the end, the addition of 10^-7 M motilin; and finally 10^-4 M acetylcholine. If the final response to 10^-4 M acetylcholine differed by more than 5% from the initial response, the results were discarded. The compounds were tested in the concentration range 10^-11 to 10^-4 M. The point corresponding to 50% of the maximal response to motilin (Emax) was determined by fitting the equation E=Emax (1+EC50 /[L]) through the data points. […] The dose giving 50% of the response is expressed using its negative logarithm (pEC50).

[3] = target: T1, motilin receptor (Oryctolagus cuniculus, UniProt G1T803); experiment: Determination of motilin receptor binding affinity (displacement of [125I-Tyr7, Nle13]motilin(porcine)); set-up: species or system rabbit
T1 construct: from tissue; host or cells: rabbit antral smooth muscle membranes
Experimental: The motilin receptor binding affinity of the peptides of this invention was determined by using the general procedure of Bormans, Peelers and Vantrappen, Regul. […] Fitting was performed using the iterative least-squares procedure of the SAS-software package (SAS Institute, Inc., Cary, N.C., USA).

[4] = negative logarithm of the concentration displacing 50% of [125I-Tyr7, Nle13]motilin(porcine) from rabbit antral smooth muscle membranes, read-out: pIC50 (converted)

T1 sequence (G1T803 1-400): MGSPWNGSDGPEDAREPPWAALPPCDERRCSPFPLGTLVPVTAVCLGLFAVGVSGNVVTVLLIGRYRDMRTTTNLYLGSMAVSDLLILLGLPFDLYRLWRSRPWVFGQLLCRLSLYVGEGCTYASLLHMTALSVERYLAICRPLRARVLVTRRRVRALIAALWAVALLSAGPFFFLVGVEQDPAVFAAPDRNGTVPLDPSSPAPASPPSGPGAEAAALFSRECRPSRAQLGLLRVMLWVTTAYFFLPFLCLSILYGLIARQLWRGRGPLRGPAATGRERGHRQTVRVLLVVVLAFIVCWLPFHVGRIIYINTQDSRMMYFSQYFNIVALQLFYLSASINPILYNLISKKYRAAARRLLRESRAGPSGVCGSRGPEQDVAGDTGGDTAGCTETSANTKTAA
Chain of segments of rabbit duodenum (G1T803 1-400): as above

SMILES	pEC50 [2]	IC50 ([3]; pIC50, negative logarithm of the concentration displacing 50% of [125I-Tyr7, Nle13]motilin(porcine) from rabbit antral smooth muscle membranes) [nM]	IC50 [3, 4]	ED50 [1] [nmol]
CC[C@H](C)[C@H](NC(=O)[C@H](C)NC(=O)[C@@H](NC(=O)[C@H](Cc1ccccc1)NC)C(C)C)C(=O)N[C@@H](Cc1ccccc1)C(=O)N[C@H](C(=O)N[C@@H](Cc1ccc(O)cc1)C(=O)NCC(=O)N[C@@H](CCC(=O)O)C(=O)N[C@@H](CC(C)C)C(=O)N[C@@H](CCC(N)=O)C(=O)N[C@H](CCCNC(=N)N)C(=O)N[C@@H](CC(C)C)C(=O)N[C@@H](CCC(N)=O)C(N)=O)[C@@H](C)O (H-[NMeF]VAIFTYGELQ[dR]LQ-NH2)	–	–	–	0.024
CC[C@H](C)[C@H](NC(=O)[C@@H]1CCCN1C(=O)[C@@H](NC(=O)[C@H](Cc1ccccc1)NC)C(C)C)C(=O)N[C@@H](Cc1ccccc1)C(=O)N[C@H](C(=O)N[C@@H](Cc1ccc(O)cc1)C(=O)NCC(=O)N[C@@H](CCC(=O)O)C(=O)N[C@@H](CC(C)C)C(=O)N[C@@H](CCC(N)=O)C(=O)N[C@H](CCCNC(=N)N)C(=O)N[C@@H](CC(C)C)C(=O)N[C@H](CCC(N)=O)C(N)=O)[C@@H](C)O (H-[NMeF]VPIFTYGELQ[dR]L[dQ]-NH2)	–	–	–	0.0004
CC[C@H](C)[C@H](NC(=O)[C@@H]1CCCN1C(=O)[C@@H](NC(=O)[C@H](Cc1ccccc1)NC)C(C)C)C(=O)N[C@@H](Cc1ccccc1)C(=O)N[C@H](C(=O)N[C@@H](Cc1ccc(O)cc1)C(=O)NCC(=O)N[C@@H](CCC(=O)O)C(=O)N[C@@H](CC(C)C)C(=O)N[C@@H](C)C(=O)N[C@H](CCCNC(=N)N)C(=O)N[C@@H](CC(C)C)C(=O)N[C@@H](CCC(N)=O)C(N)=O)[C@@H](C)O (H-[NMeF]VPIFTYGELA[dR]LQ-NH2)	–	–	–	0.0018
CC[C@H](C)[C@H](NC(=O)[C@H](C)NC(=O)[C@@H](NC(=O)[C@H](Cc1ccccc1)[N+](C)(C)C)C(C)C)C(=O)N[C@@H](Cc1ccccc1)C(=O)N[C@H](C(=O)N[C@@H](Cc1ccc(O)cc1)C(=O)NCC(=O)N[C@@H](CCC(=O)O)C(=O)N[C@@H](CC(C)C)C(=O)N[C@@H](CCC(N)=O)C(=O)N[C@H](CCCNC(=N)N)C(=O)N[C@@H](CC(C)C)C(=O)N[C@H](CCC(N)=O)C(N)=O)[C@@H](C)O (X1-VAIFTYGELQ[dR]L[dQ]-NH2)	7.20	–	1.41 nM	–
CC[C@H](C)[C@H](NC(=O)[C@H](C)NC(=O)[C@@H](NC(=O)[C@H](Cc1ccccc1)N(C)C)C(C)C)C(=O)N[C@@H](Cc1ccccc1)C(=O)N[C@H](C(=O)N[C@@H](Cc1ccc(O)cc1)C(=O)NCC(=O)N[C@@H](CCC(=O)O)C(=O)N[C@@H](CC(C)C)C(=O)N[C@@H](C)C(=O)N[C@H](CCCNC(=N)N)C(=O)N[C@@H](CC(C)C)C(=O)N[C@H](CCCCN)C(N)=O)[C@@H](C)O (NMe2Phe-VAIFTYGELA[dR]L[dK]-NH2)	7.73	–	4.07 nM	–
CC[C@H](C)[C@H](NC(=O)[C@H](C)NC(=O)[C@@H](NC(=O)[C@H](Cc1ccccc1)NC)C(C)C)C(=O)N[C@@H](Cc1ccccc1)C(=O)N[C@H](C(=O)N[C@@H](Cc1ccc(O)cc1)C(=O)NCC(=O)N[C@@H](CCC(=O)O)C(=O)N[C@@H](CC(C)C)C(=O)N[C@@H](C)C(=O)N[C@H](CCCNC(=N)N)C(=O)N[C@@H](CC(C)C)C(=O)N[C@H](CCC(N)=O)C(N)=O)[C@@H](C)O (H-[NMeF]VAIFTYGELA[dR]L[dQ]-NH2)	7.32	–	0.724 nM	–

Now from value to compound, other results behind:

pEC50 [2]	IC50 ([3]; pIC50, negative logarithm of the concentration displacing 50% of [125I-Tyr7, Nle13]motilin(porcine) from rabbit antral smooth muscle membranes) [nM]	IC50 [3, 4]	SMILES	ED50 [1] [nmol]
8.07	0.776	–	CC[C@H](C)[C@H](NC(=O)[C@H](C)NC(=O)[C@@H](NC(=O)[C@H](Cc1ccccc1)NC)C(C)C)C(=O)N[C@@H](Cc1ccccc1)C(=O)N[C@H](C(=O)N[C@@H](Cc1ccc(O)cc1)C(=O)NCC(=O)N[C@@H](CCC(=O)O)C(=O)N[C@@H](CC(C)C)C(=O)N[C@@H](CCC(N)=O)C(=O)N[C@H](CCCNC(=N)N)C(=O)N[C@@H](CC(C)C)C(=O)N[C@H](CCC(N)=O)C(N)=O)[C@@H](C)O (H-[NMeF]VAIFTYGELQ[dR]L[dQ]-NH2)	–
7.50	–	2.45 nM	CC[C@H](C)[C@H](NC(=O)[C@@H]1CCCN1C(=O)[C@@H](NC(=O)[C@@H](N)Cc1ccccc1)C(C)C)C(=O)N[C@@H](Cc1ccccc1)C(=O)N[C@H](C(=O)N[C@@H](Cc1ccc(O)cc1)C(=O)NCC(=O)N[C@@H](CCC(=O)O)C(=O)N[C@@H](CC(C)C)C(=O)N[C@@H](CCC(N)=O)C(=O)N[C@H](CCCNC(=N)N)C(=O)N[C@@H](CC(C)C)C(=O)N[C@@H](CCC(N)=O)C(N)=O)[C@@H](C)O [[D-Arg^13, Leu^13]pMOT(1-14) amide] (H-FVPIFTYGELQ[dR]LQ-NH2)	–
6.83	–	4.27 nM	CC[C@H](C)[C@H](NC(=O)[C@@H]1CCCN1C(=O)[C@@H](NC(=O)[C@@H](N)Cc1ccccc1)C(C)C)C(=O)N[C@@H](Cc1ccccc1)C(=O)N[C@H](C(=O)N[C@@H](Cc1ccc(O)cc1)C(=O)NCC(=O)N[C@@H](CCC(=O)O)C(=O)N[C@@H](CC(C)C)C(=O)N[C@@H](CCC(N)=O)C(=O)N[C@H](CCCN)C(=O)N[C@@H](CC(C)C)C(=O)N[C@@H](CCC(N)=O)C(=O)O)[C@@H](C)O [[D-Orn^12, Leu^13]pMOT(1-14)] (H-FVPIFTYGELQ[dOrn]LQ-OH)	–
7.65	–	2.14 nM	C#CC[N+](C)(C)[C@@H](Cc1ccccc1)C(=O)N[C@H](C(=O)N1CCC[C@H]1C(=O)N[C@H](C(=O)N[C@@H](Cc1ccccc1)C(=O)N[C@H](C(=O)N[C@@H](Cc1ccc(O)cc1)C(=O)NCC(=O)N[C@@H](CCC(=O)O)C(=O)N[C@@H](CC(C)C)C(=O)N[C@@H](CCC(N)=O)C(=O)N[C@@H](CCCNC(=N)N)C(=O)N[C@@H](CC(C)C)C(=O)N[C@@H](CCC(N)=O)C(N)=O)[C@@H](C)O)[C@@H](C)CC)C(C)C (X3-VPIFTYGELQRLQ-NH2)	–
7.76	–	1.95 nM	CC[C@H](C)[C@H](NC(=O)[C@@H]1CCCN1C(=O)[C@@H](NC(=O)[C@H](Cc1ccccc1)N(C)C)C(C)C)C(=O)N[C@@H](Cc1ccccc1)C(=O)N[C@H](C(=O)N[C@@H](Cc1ccc(O)cc1)C(=O)NCC(=O)N[C@@H](CCC(=O)O)C(=O)N[C@@H](CC(C)C)C(=O)N[C@@H](C)C(=O)N[C@H](CCCNC(=N)N)C(=O)N[C@@H](CC(C)C)C(=O)N[C@@H](CCC(N)=O)C(N)=O)[C@@H](C)O (NMe2Phe-VPIFTYGELA[dR]LQ-NH2)	–
7.74	–	0.977 nM	CC[C@H](C)[C@H](NC(=O)[C@@H]1CCCN1C(=O)[C@@H](NC(=O)[C@@H](N)Cc1ccccc1)C(C)C)C(=O)N[C@@H](Cc1ccccc1)C(=O)N[C@H](C(=O)N[C@@H](Cc1ccc(O)cc1)C(=O)NCC(=O)N[C@@H](CCC(=O)O)C(=O)N[C@@H](CC(C)C)C(=O)N[C@@H](CCC(N)=O)C(=O)N[C@H](CCCNC(=N)N)C(=O)N[C@@H](CC(C)C)C(=O)N[C@@H](CCC(N)=O)C(=O)O)[C@@H](C)O [[D-Arg^13, Leu^13]pMOT(1-14), [12-D-Arginine, 13-leucine]motilin-(1-14)-peptide (Porcine) Bis-trifiuoroacetate Salt] (H-FVPIFTYGELQ[dR]LQ-OH)	–
7.52	–	3.55 nM and 2.14 nM	CC[C@H](C)[C@H](NC(=O)[C@@H]1CCCN1C(=O)[C@@H](NC(=O)[C@H](Cc1ccccc1)[N+](C)(C)C)C(C)C)C(=O)N[C@@H](Cc1ccccc1)C(=O)N[C@H](C(=O)N[C@@H](Cc1ccc(O)cc1)C(=O)NCC(=O)N[C@@H](CCC(=O)O)C(=O)N[C@@H](CC(C)C)C(=O)N[C@@H](CCC(N)=O)C(=O)N[C@H](CCCNC(=N)N)C(=O)N[C@@H](CC(C)C)C(=O)N[C@@H](CCC(N)=O)C(=O)O)[C@@H](C)O (X1-VPIFTYGELQ[dR]LQ-OH)	–
